Measured values as given in PubChem BioAssay (NCI).
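Five concentrations, 48 hours, 96-well plates. TGI denotes the concentration required for complete inhibition of growth.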

What was measured:
Test in all cases: NCI anticancer screen, dose series, 48 h
[1] = system: 786-0 renal
[2] = system: A498 renal
[3] = system: ACHN renal
[4] = system: BT-549 breast
[5] = system: CAKI-1 renal
[6] = system: CCRF-CEM leukemia
[7] = system: COLO 205 colon
[8] = system: DU-145 prostate
[9] = system: EKVX NSCLC
[10] = system: HCC-2998 colon
[11] = system: HCT-116 colon
[12] = system: HCT-15 colon
[13] = system: HL-60(TB) leukemia
[14] = system: HOP-62 NSCLC
[15] = system: HOP-92 NSCLC
[16] = system: HS 578T breast
[17] = system: IGROV1 ovarian
[18] = system: K-562 leukemia
[19] = system: KM12 colon
[20] = system: LOX IMVI melanoma
[21] = system: M14 melanoma
[22] = system: MCF7 breast
[23] = system: MDA-MB-231 breast
[24] = system: MDA-MB-435
[25] = system: MDA-N
[26] = system: MOLT-4 leukemia
[27] = system: NCI-H226 lung
[28] = system: NCI-H23 lung
[29] = system: NCI-H460 lung
[30] = system: NCI-H522 lung
[31] = system: NCI/ADR-RES ovarian
[32] = system: OVCAR-3 ovarian
[33] = system: OVCAR-4 ovarian
[34] = system: OVCAR-5 ovarian
[35] = system: OVCAR-8 ovarian
[36] = system: PC-3 prostate
[37] = system: RPMI-8226 leukemia
[38] = system: RXF 393 renal
[39] = system: SF-268 CNS
[40] = system: SF-295 CNS
[41] = system: SF-539 CNS
[42] = system: SK-MEL-2 melanoma
[43] = system: SK-MEL-5 melanoma
[44] = system: SK-OV-3 ovarian
[45] = system: SN12C renal
[46] = system: SNB-19 CNS
[47] = system: SNB-75 CNS
[48] = system: SR leukemia
[49] = system: SW-620 colon
[50] = system: T-47D breast
[51] = system: TK-10 renal
[52] = system: U251 CNS
[53] = system: UACC-257 melanoma
[54] = system: UACC-62 melanoma
[55] = system: UO-31 renal
[56] = system: A549 NSCLC
[57] = system: HT29 colon
[58] = system: MALME-3M melanoma
[59] = system: SK-MEL-28 melanoma

Work on `O=C(OCC(OC(=O)c1ccccc1)C1CC(C(O)C2CCCCC2)C(=O)O1)c1ccccc1` (stereo not given) yielded a TGI [1] greater than 100 µM, a TGI [2] greater than 100 µM and a TGI [3] greater than 100 µM. For the same molecule, the TGI [4] was greater than 100 µM, the TGI [5] was greater than 100 µM and the TGI [6] was 52.8 µM. It also gave a TGI [7] greater than 100 µM, a TGI [8] greater than 100 µM and a TGI [9] greater than 100 µM. It also gave a TGI [10] greater than 100 µM, a TGI [11] greater than 100 µM and a TGI [12] greater than 100 µM. For the same molecule, the TGI [13] was 37 µM, the TGI [14] was greater than 100 µM and the TGI [15] was greater than 100 µM. The TGI [16] was greater than 100 µM, the TGI [17] was greater than 100 µM and the TGI [18] was 50.5 µM. The TGI [19] was greater than 100 µM, the TGI [20] was greater than 100 µM and the TGI [21] was greater than 100 µM. It also gave a TGI [22] of 96.7 µM, a TGI [23] greater than 100 µM and a TGI [24] greater than 100 µM. It also gave a TGI [25] greater than 100 µM, a TGI [26] of 47.9 µM and a TGI [27] greater than 100 µM. It also gave a TGI [28] greater than 100 µM, a TGI [29] greater than 100 µM and a TGI [30] greater than 100 µM. The TGI [31] was greater than 100 µM, the TGI [32] was greater than 100 µM and the TGI [33] was greater than 100 µM. It also gave a TGI [34] greater than 100 µM, a TGI [35] greater than 100 µM and a TGI [36] greater than 100 µM. For the same molecule, the TGI [37] was 78.9 µM, the TGI [38] was greater than 100 µM and the TGI [39] was greater than 100 µM. For the same molecule, the TGI [40] was greater than 100 µM, the TGI [41] was 66.1 µM and the TGI [42] was greater than 100 µM. The TGI [43] was 32.2 µM, the TGI [44] was greater than 100 µM and the TGI [45] was greater than 100 µM. The TGI [46] was greater than 100 µM, the TGI [47] was greater than 100 µM and the TGI [48] was 44.8 µM. The TGI [49] was greater than 100 µM, the TGI [50] was greater than 100 µM and the TGI [51] was greater than 100 µM. It also gave a TGI [52] greater than 100 µM, a TGI [53] greater than 100 µM and a TGI [54] greater than 100 µM. For the same molecule, the TGI [55] was greater than 100 µM.

`COc1cc2c3c4[n+](cc2c(OC)c1OC)CCC4CCC3` (stereo not given) gave a TGI [1] greater than 100 µM, a TGI [2] greater than 100 µM and a TGI [56] greater than 100 µM. It also gave a TGI [3] greater than 100 µM, a TGI [4] greater than 100 µM and a TGI [5] greater than 100 µM. The TGI [6] was greater than 100 µM, the TGI [7] was greater than 84.7 µM and the TGI [8] was greater than 100 µM. The TGI [9] was greater than 100 µM, the TGI [10] was greater than 100 µM and the TGI [11] was greater than 100 µM. It also gave a TGI [12] greater than 100 µM, a TGI [14] greater than 100 µM and a TGI [15] greater than 100 µM. It also gave a TGI [16] greater than 100 µM, a TGI [57] greater than 100 µM and a TGI [17] greater than 100 µM. For the same molecule, the TGI [18] was greater than 100 µM, the TGI [19] was 99.5 µM and the TGI [20] was greater than 100 µM. For the same molecule, the TGI [21] was greater than 100 µM, the TGI [58] was greater than 65.8 µM and the TGI [22] was greater than 100 µM. For the same molecule, the TGI [23] was greater than 100 µM, the TGI [24] was greater than 100 µM and the TGI [25] was greater than 100 µM. For the same molecule, the TGI [26] was greater than 100 µM, the TGI [27] was greater than 100 µM and the TGI [28] was greater than 100 µM. It also gave a TGI [29] greater than 100 µM, a TGI [30] greater than 100 µM and a TGI [31] greater than 100 µM. For the same molecule, the TGI [32] was greater than 100 µM, the TGI [33] was greater than 100 µM and the TGI [34] was greater than 100 µM. For the same molecule, the TGI [35] was greater than 100 µM, the TGI [36] was greater than 100 µM and the TGI [37] was greater than 100 µM. For the same molecule, the TGI [38] was greater than 100 µM, the TGI [39] was greater than 100 µM and the TGI [40] was greater than 100 µM. For the same molecule, the TGI [41] was greater than 100 µM, the TGI [42] was greater than 100 µM and the TGI [59] was greater than 100 µM. It also gave a TGI [43] greater than 53.3 µM, a TGI [44] greater than 100 µM and a TGI [45] greater than 100 µM. The TGI [46] was greater than 100 µM, the TGI [48] was greater than 100 µM and the TGI [49] was greater than 100 µM. For the same molecule, the TGI [50] was greater than 100 µM, the TGI [51] was greater than 100 µM and the TGI [52] was greater than 100 µM. For the same molecule, the TGI [53] was greater than 100 µM, the TGI [54] was greater than 100 µM and the TGI [55] was greater than 100 µM.

`COC1OC2COC(c3ccccc3)OC2C(OC(=S)c2ccccc2)C1O` (stereo not given) gave a TGI [2] greater than 100 µM, a TGI [56] of 33.7 µM and a TGI [3] greater than 100 µM. The TGI [4] was greater than 100 µM, the TGI [5] was greater than 100 µM and the TGI [6] was greater than 100 µM. For the same molecule, the TGI [7] was greater than 100 µM, the TGI [8] was greater than 100 µM and the TGI [9] was 5.82 µM. The TGI [12] was greater than 100 µM, the TGI [14] was 41.1 µM and the TGI [15] was greater than 100 µM. It also gave a TGI [16] greater than 100 µM, a TGI [57] greater than 100 µM and a TGI [17] greater than 100 µM. The TGI [18] was greater than 100 µM, the TGI [20] was 20.5 µM and the TGI [21] was greater than 100 µM. For the same molecule, the TGI [58] was greater than 100 µM, the TGI [22] was greater than 100 µM and the TGI [23] was 78.1 µM. For the same molecule, the TGI [24] was 22.8 µM, the TGI [25] was greater than 100 µM and the TGI [26] was greater than 100 µM. The TGI [27] was greater than 100 µM, the TGI [28] was greater than 100 µM and the TGI [29] was greater than 100 µM. For the same molecule, the TGI [31] was 79 µM, the TGI [32] was greater than 100 µM and the TGI [33] was greater than 100 µM. It also gave a TGI [34] greater than 100 µM, a TGI [35] of 39.3 µM and a TGI [36] of 74.9 µM. The TGI [37] was greater than 100 µM, the TGI [38] was 36.9 µM and the TGI [39] was greater than 100 µM. It also gave a TGI [40] greater than 100 µM, a TGI [41] of 27.7 µM and a TGI [42] greater than 100 µM. For the same molecule, the TGI [59] was greater than 100 µM, the TGI [43] was greater than 100 µM and the TGI [44] was 58.2 µM. The TGI [45] was greater than 100 µM, the TGI [46] was greater than 100 µM and the TGI [48] was greater than 100 µM. For the same molecule, the TGI [49] was greater than 100 µM, the TGI [50] was 59.5 µM and the TGI [51] was greater than 100 µM. It also gave a TGI [52] of 26.2 µM, a TGI [53] greater than 100 µM and a TGI [54] greater than 100 µM. For the same molecule, the TGI [55] was greater than 100 µM.

`Oc1cccc(-c2cn3cc(Cl)ccc3n2)c1` was tested, and the TGI [1] was greater than 100 µM, the TGI [2] was greater than 100 µM and the TGI [56] was greater than 100 µM. For the same molecule, the TGI [3] was greater than 100 µM, the TGI [4] was greater than 100 µM and the TGI [5] was greater than 100 µM. For the same molecule, the TGI [6] was 81.5 µM, the TGI [7] was greater than 100 µM and the TGI [8] was greater than 100 µM. The TGI [9] was 83.5 µM, the TGI [10] was greater than 100 µM and the TGI [11] was greater than 100 µM. The TGI [12] was greater than 100 µM, the TGI [13] was 56.2 µM and the TGI [14] was greater than 100 µM. For the same molecule, the TGI [15] was greater than 100 µM, the TGI [16] was greater than 100 µM and the TGI [57] was greater than 100 µM. It also gave a TGI [17] greater than 100 µM, a TGI [18] greater than 100 µM and a TGI [19] greater than 100 µM. For the same molecule, the TGI [20] was greater than 100 µM, the TGI [21] was greater than 100 µM and the TGI [58] was greater than 100 µM. It also gave a TGI [22] greater than 100 µM, a TGI [23] greater than 100 µM and a TGI [24] greater than 100 µM. The TGI [25] was greater than 100 µM, the TGI [26] was greater than 100 µM and the TGI [27] was greater than 100 µM. For the same molecule, the TGI [28] was greater than 100 µM, the TGI [29] was greater than 100 µM and the TGI [30] was 43.3 µM. The TGI [31] was greater than 100 µM, the TGI [32] was greater than 100 µM and the TGI [33] was greater than 100 µM. It also gave a TGI [34] greater than 100 µM, a TGI [35] greater than 100 µM and a TGI [36] greater than 100 µM. The TGI [38] was 86 µM, the TGI [39] was greater than 100 µM and the TGI [40] was greater than 100 µM. It also gave a TGI [42] greater than 100 µM, a TGI [59] greater than 100 µM and a TGI [43] of 35.9 µM. The TGI [44] was greater than 100 µM, the TGI [45] was greater than 100 µM and the TGI [46] was greater than 100 µM. The TGI [48] was greater than 100 µM, the TGI [49] was greater than 100 µM and the TGI [50] was 48.2 µM. The TGI [51] was greater than 100 µM, the TGI [52] was greater than 100 µM and the TGI [53] was 77.5 µM. The TGI [54] was greater than 100 µM and the TGI [55] was greater than 100 µM.
